From PubChem BioAssay AID248 (DTP/NCI, 2004)
Where “and” joins values, the source holds several entries; their conditions need not be identical. Identical values can stand only once. Inconclusive results and toxic doses are left out. Cut-off read from the data, not from the text of the source: active = T/C of 150% or more; inactive = T/C below 125%.

Test system: L1210 leukemia ip in BDF1 mice, survival T/C
Assay: NCI In Vivo Anticancer Drug Screen. Data for tumor model L1210 Leukemia (intraperitoneal) in B6D2F1 (BDF1) mice
Conditions: endpoint: mean survival time, higher = longer survival
How it was run: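 Mice bearing the transplanted tumor received compound or vehicle. Survival of the treated group was divided by that of the vehicle-treated control group to give the ratio.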

[1] = dose: 75.0 mg/kg/injection, schedule: Q01DX001 (ip), vehicle: other
[2] = dose: 100.0 mg/kg/injection, schedule: Q01DX001 (ip), vehicle: saline
[3] = dose: 200.0 mg/kg/injection, schedule: Q01DX001 (ip), vehicle: saline
[4] = dose: 400.0 mg/kg/injection, schedule: Q01DX001 (ip), vehicle: saline
[5] = dose: 50.0 mg/kg/injection, schedule: Q01DX001 (ip), vehicle: carboxymethylcellulose (CMC)
[6] = dose: 100.0 mg/kg/injection, schedule: Q01DX001 (ip), vehicle: carboxymethylcellulose (CMC)
[7] = dose: 200.0 mg/kg/injection, schedule: Q01DX001 (ip), vehicle: carboxymethylcellulose (CMC)
[8] = dose: 400.0 mg/kg/injection, schedule: Q01DX001 (ip), vehicle: carboxymethylcellulose (CMC)
[9] = dose: 100.0 mg/kg/injection, schedule: Q04DX003 (ip), vehicle: saline
[10] = dose: 100.0 mg/kg/injection, schedule: Q04DX003 (ip), vehicle: saline with Tween-80
[11] = dose: 200.0 mg/kg/injection, schedule: Q04DX003 (ip), vehicle: saline with Tween-80
[12] = dose: 400.0 mg/kg/injection, schedule: Q04DX003 (ip), vehicle: saline with Tween-80
[13] = dose: 200.0 mg/kg/injection, schedule: Q04DX003 (ip), vehicle: saline
[14] = dose: 100.0 mg/kg/injection, schedule: Q01DX009 (ip), vehicle: saline with Tween-80
[15] = dose: 200.0 mg/kg/injection, schedule: Q01DX009 (ip), vehicle: saline with Tween-80
[16] = dose: 25.0 mg/kg/injection, schedule: Q01DX009 (ip), vehicle: Klucel (hydroxypropylcellulose) (HPC)
[17] = dose: 25.0 mg/kg/injection, schedule: Q04DX002 (ip), vehicle: Klucel (hydroxypropylcellulose) (HPC)
[18] = dose: 50.0 mg/kg/injection, schedule: Q01DX009 (ip), vehicle: Klucel (hydroxypropylcellulose) (HPC)
[19] = dose: 50.0 mg/kg/injection, schedule: Q04DX002 (ip), vehicle: Klucel (hydroxypropylcellulose) (HPC)
[20] = dose: 100.0 mg/kg/injection, schedule: Q04DX002 (ip), vehicle: Klucel (hydroxypropylcellulose) (HPC)
[21] = dose: 100.0 mg/kg/injection, schedule: Q04DX003 (ip), vehicle: Klucel (hydroxypropylcellulose) (HPC)
[22] = dose: 50.0 mg/kg/injection, schedule: Q01DX015 (ip), vehicle: carboxymethylcellulose (CMC)
[23] = dose: 200.0 mg/kg/injection, schedule: Q01DX015 (ip), vehicle: carboxymethylcellulose (CMC)

Measured: T/C

CN(C)c1ccc(/C=C/C=N/N=C/c2ccccc2O)cc1
inactive: [1] 89 % of control | dose: 150.0 mg/kg/injection, schedule: Q01DX001 (ip), vehicle: other 94 % of control

c1ccc(OB(Oc2ccccc2)Oc2ccccc2)cc1
inactive: [2] 95 % of control | [3] 95 % of control | [4] 106 % of control

COc1cccc(CCO)c1OC
inactive: [5] 88 % of control | [6] 91 % of control | [7] 88 % of control | [8] 98 % of control

COC(=O)C1=C(C(=O)OC)[N+](C)(C)N=C1[O-]
inactive: dose: 25.0 mg/kg/injection, schedule: Q04DX003 (ip), vehicle: saline 110 % of control | dose: 50.0 mg/kg/injection, schedule: Q04DX003 (ip), vehicle: saline 104 % of control | [9] 95 % of control and 101 % of control

CN(C)CCOC(=O)c1ccc(CBr)cc1
inactive: dose: 10.0 mg/kg/injection, schedule: Q01DX009 (ip), vehicle: saline 97 % of control | dose: 20.0 mg/kg/injection, schedule: Q01DX009 (ip), vehicle: saline 95 % of control | dose: 40.0 mg/kg/injection, schedule: Q01DX009 (ip), vehicle: saline 93 % of control | dose: 87.5 mg/kg/injection, schedule: Q01DX009 (ip), vehicle: saline 101 % of control

CC(C)NC(=O)C1C2CCC(CC2)C1C(=O)NC(C)C (configuration not stated)
inactive: [10] 96 % of control | [11] 86 % of control | [12] 86 % of control

CC(=O)NC1=C(S(=O)(=O)O)c2ccccc2C1
inactive: [2] 105 % of control | dose: 100.0 mg/kg/injection, schedule: Q01DX009 (ip), vehicle: saline 98 % of control | dose: 100.0 mg/kg/injection, schedule: Q04DX002 (ip), vehicle: saline 94 % of control and 110 % of control and 118 % of control | [9] 104 % of control | [3] 115 % of control | dose: 200.0 mg/kg/injection, schedule: Q01DX009 (ip), vehicle: saline 98 % of control and 104 % of control | dose: 200.0 mg/kg/injection, schedule: Q04DX002 (ip), vehicle: saline 94 % of control and 103 % of control | [13] 96 % of control | [4] 108 % of control | dose: 400.0 mg/kg/injection, schedule: Q01DX009 (ip), vehicle: saline 105 % of control and 106 % of control | dose: 400.0 mg/kg/injection, schedule: Q04DX002 (ip), vehicle: saline 102 % of control and 109 % of control and 88 % of control | dose: 400.0 mg/kg/injection, schedule: Q04DX003 (ip), vehicle: saline 102 % of control

C#CC1(O)CCCC(C)C1 (configuration not stated)
inactive: [14] 102 % of control | [15] 97 % of control

C[C@]12CC[C@@H]3c4cc([N+]#N)c([O-])cc4CC[C@H]3[C@@H]1CCC2=O
inactive: [16] 103 % of control | [17] 96 % of control | [18] 92 % of control | [19] 122 % of control | [20] 100 % of control and 101 % of control

O/N=C/c1cccn1-c1cccc2c(-n3cccc3/C=N/O)cccc12
inactive: [17] 101 % of control | [19] 93 % of control | [20] 97 % of control

CCNC(C)(C)C(Cl)c1ccc(Cl)s1 (configuration not stated)
inactive: [16] 90 % of control | dose: 25.0 mg/kg/injection, schedule: Q04DX003 (ip), vehicle: Klucel (hydroxypropylcellulose) (HPC) 101 % of control | [18] 89 % of control | dose: 50.0 mg/kg/injection, schedule: Q04DX003 (ip), vehicle: Klucel (hydroxypropylcellulose) (HPC) 97 % of control | dose: 100.0 mg/kg/injection, schedule: Q01DX009 (ip), vehicle: Klucel (hydroxypropylcellulose) (HPC) 90 % of control | [21] 101 % of control and 102 % of control

CC(c1ccccc1)N1COc2ccc3ccccc3c2C1 (configuration not stated)
inactive: [5] 97 % of control | [22] 96 % of control | [6] 93 % of control | dose: 100.0 mg/kg/injection, schedule: Q01DX015 (ip), vehicle: carboxymethylcellulose (CMC) 96 % of control | [10] 94 % of control | [7] 103 % of control | [23] 97 % of control | [11] 93 % of control | [8] 104 % of control | dose: 400.0 mg/kg/injection, schedule: Q01DX015 (ip), vehicle: carboxymethylcellulose (CMC) 90 % of control | [12] 88 % of control

CCOC(=O)C(C#N)=C(C)C
inactive: [1] 103 % of control | [2] 97 % of control | [9] 97 % of control | [13] 94 % of control

O=C(O)C(Br)C(Br)C(=O)Nc1cccc(Cl)c1 (configuration not stated)
inactive: dose: 100.0 mg/kg/injection, schedule: Q04DX002 (ip), vehicle: saline with Tween-80 91 % of control | dose: 200.0 mg/kg/injection, schedule: Q04DX002 (ip), vehicle: saline with Tween-80 95 % of control | dose: 400.0 mg/kg/injection, schedule: Q04DX002 (ip), vehicle: saline with Tween-80 88 % of control

O=C(Nc1ccc(Nc2ccccc2)cc1)Nc1ccc(F)c(Cl)c1
inactive: [21] 92 % of control | dose: 200.0 mg/kg/injection, schedule: Q04DX003 (ip), vehicle: Klucel (hydroxypropylcellulose) (HPC) 94 % of control | dose: 400.0 mg/kg/injection, schedule: Q04DX003 (ip), vehicle: Klucel (hydroxypropylcellulose) (HPC) 94 % of control

O=C(O)C1C(C(=O)O)C2(c3ccccc3)C(=O)C1(c1ccccc1)C(c1ccccc1)=C2c1ccccc1 (configuration not stated)
inactive: dose: 100.0 mg/kg/injection, schedule: Q01DX001 (ip), vehicle: saline with Tween-80 89 % of control | dose: 200.0 mg/kg/injection, schedule: Q01DX001 (ip), vehicle: saline with Tween-80 110 % of control | dose: 400.0 mg/kg/injection, schedule: Q01DX001 (ip), vehicle: saline with Tween-80 100 % of control

Nc1ccc2c(c1)sc1ccccc12
inactive: [10] 88 % of control | [11] 91 % of control

S=C(N/N=C/c1ccc2c(c1)OCO2)Nc1cccc2cccnc12
inactive: [2] 105 % of control | [3] 88 % of control | [4] 96 % of control

CN(C)C(=S)SCCC(N)C(=O)O (configuration not stated)
inactive: dose: 50.0 mg/kg/injection, schedule: Q01DX009 (ip), vehicle: saline with Tween-80 90 % of control | [14] 101 % of control | [15] 96 % of control

CCOC(=O)CC(C)(C)NCc1ccccc1
inactive: [21] 96 % of control

COc1ccc(CSc2ncnc3nc[nH]c23)cc1
inactive: dose: 6.0 mg/kg/injection, schedule: Q01DX015 (ip), vehicle: carboxymethylcellulose (CMC) 92 % of control | dose: 12.0 mg/kg/injection, schedule: Q01DX015 (ip), vehicle: carboxymethylcellulose (CMC) 91 % of control | dose: 25.0 mg/kg/injection, schedule: Q01DX015 (ip), vehicle: carboxymethylcellulose (CMC) 101 % of control | [22] 101 % of control | [23] 111 % of control

OCCCOc1cccc(Cl)c1
inactive: dose: 75.0 mg/kg/injection, schedule: Q04DX002 (ip), vehicle: Klucel (hydroxypropylcellulose) (HPC) 105 % of control | dose: 150.0 mg/kg/injection, schedule: Q04DX002 (ip), vehicle: Klucel (hydroxypropylcellulose) (HPC) 108 % of control | dose: 300.0 mg/kg/injection, schedule: Q04DX002 (ip), vehicle: Klucel (hydroxypropylcellulose) (HPC) 105 % of control

C/C(=N/N(C)C)c1cccc(N)c1
inactive: [2] 98 % of control | [3] 93 % of control | [4] 101 % of control

O/N=C/c1ccccc1
inactive: dose: 66.0 mg/kg/injection, schedule: Q01DX009 (ip), vehicle: saline with Tween-80 87 % of control | [14] 96 % of control | dose: 150.0 mg/kg/injection, schedule: Q01DX009 (ip), vehicle: saline with Tween-80 95 % of control

COc1ccc(CC2C(=O)OC(=O)C2Cc2ccc(OC)c(OC)c2)cc1OC (configuration not stated)
inactive: [10] 91 % of control | [11] 104 % of control | [12] 94 % of control
